Where a SMILES comes first, the peptide text is derived from it.
Molecular target: T1, GPR7 (Homo sapiens, UniProt P48145)
T1 construct: expressed in transfected cells; host or cells: CHO dhfr- cells, plasmid pAKKO-Human GPR7 (high-expression clones 7, 8, 14)
T1 sequence (P48145 1-328): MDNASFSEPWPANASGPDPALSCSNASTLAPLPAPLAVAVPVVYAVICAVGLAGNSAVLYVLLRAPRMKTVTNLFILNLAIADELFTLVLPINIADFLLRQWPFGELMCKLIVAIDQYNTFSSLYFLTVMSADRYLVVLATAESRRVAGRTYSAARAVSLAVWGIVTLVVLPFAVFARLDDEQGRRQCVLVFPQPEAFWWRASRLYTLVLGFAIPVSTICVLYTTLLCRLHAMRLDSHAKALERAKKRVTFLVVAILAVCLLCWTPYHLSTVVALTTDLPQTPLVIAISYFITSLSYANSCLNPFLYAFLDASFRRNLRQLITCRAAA
Assay: GTPγS-binding promoting activity on GPR7-expressed CHO cell membrane fraction
Format: biochemical
Description: The [^35S]-guanosine 5′-(γ-thio)triphosphate (GTPγS) binding promoting activity on the GPR7-expressed CHO cell membrane fraction was assayed by the following procedures.
The GPR7-expressed CHO cell membrane fraction prepared by the method described in EXAMPLE 2 was diluted with a membrane dilution buffer (50 mM Tris-hydrochloride buffer (pH 7.4), 5 mM MgCl2, 150 mM NaCl, 1 μM GDP and 0.1% BSA) to prepare a cell membrane fraction solution for assay having a protein level of 30 μg/ml. To 200 μl of the cell membrane fraction solution for assay were added 2 μl of 50 nM [^35S]-guanosine 5′-(γ-thio)triphosphate (NEN Co.) and 2 μl of a sample solution in DMSO, which was adjusted to an appropriate concentration. The resulting mixture was kept warm at 25° C. for an hour. The mixture was filtrated through a filter. After the filter was washed twice with 1.5 ml of a wash buffer (50 mM Tris-hydrochloride buffer (pH 7.4), 5 mM MgCl2, 1 mM EDTA and 0.1% BSA), radioactivity of the filter was measured with a liquid scintillation counter.
Following the procedures described in 1) above, hGPR8L (1-23) or hGPR8L (1-30) were given to the GPR7-expressed CHO cell membrane fraction in various concentrations to assay for the GTPγS-binding promoting activity. […]

| SMILES | EC50 |
| --- | --- |
| CSCC[C@H](NC(=O)[C@H](CC(C)C)NC(=O)[C@H](CC(C)C)NC(=O)CNC(=O)[C@H](C)NC(=O)[C@H](C)NC(=O)[C@H](CCCNC(=N)N)NC(=O)CNC(=O)[C@@H](NC(=O)[C@@H](NC(=O)[C@H](Cc1c[nH]cn1)NC(=O)[C@H](Cc1ccc(O)cc1)NC(=O)[C@H](CCCNC(=N)N)NC(=O)[C@@H]1CCCN1C(=O)[C@H](CO)NC(=O)[C@H](C)NC(=O)[C@@H](NC(=O)[C@@H](N)Cc1c[nH]cn1)C(C)C)[C@@H](C)O)C(C)C)C(=O)NCC(=O)N[C@@H](CC(C)C)C(=O)O [hGPR8L(4–23)] (H-HVASPRYHTVGRAAGLLMGL-OH; C-terminus assumed) | > 10000 nM |
| CSCC[C@H](NC(=O)[C@H](CC(C)C)NC(=O)[C@H](CC(C)C)NC(=O)CNC(=O)[C@H](C)NC(=O)[C@H](C)NC(=O)[C@H](CCCNC(=N)N)NC(=O)CNC(=O)[C@@H](NC(=O)[C@@H](NC(=O)[C@H](Cc1c[nH]cn1)NC(=O)[C@H](Cc1ccc(O)cc1)NC(=O)[C@@H](N)CCCNC(=N)N)[C@@H](C)O)C(C)C)C(=O)NCC(=O)N[C@@H](CC(C)C)C(=O)O [hGPR8L(9–23), Arg-Tyr-His-Thr-Val-Gly-Arg-Ala-Ala-Gly-Leu-Leu-Met-Gly-Leu] (H-RYHTVGRAAGLLMGL-OH; C-terminus assumed) | > 10000 nM |

Reference: patent US7247440B2, “Method of screening preventives or remedies for obesity” (Takeda Pharmaceutical Company Limited, priority 2001, dated 2007)
